Structures can show the parent of a compound that is named as a salt. Where two headings read alike, the source gives them in different places. Some results are limits rather than exact numbers.

This note sets out measurements from patent EP0009547A1, “Fluoramphenicol esters, chemotherapeutic preparations containing them and process for their preparation” (F. HOFFMANN-LA ROCHE & CO. Aktiengesellschaft, priority 1978, dated 1980).

A short description of one data set: Metabolic stability. The class given is in vitro ADME. Particulars: stated in contrast to Chloramphenicol.
A further data set can be described thus: Acute toxicity (mouse). Particulars: in vivo, read-out: Akute Toxizität (Maus): LD50.
Another data set concerns Streptococcos pyogenes. Briefly: In vivo activity (mouse), infection with Streptococcos pyogenes. Particulars: po, Maus, p.o., gegen Streptococcos pyogenes, hydrochloride form, read-out: In-vivo-Aktivität (Maus) (CD50 p.o.).
The next data set concerns Escherichia coli. Briefly: In vivo activity (mouse), infection with Escherichia coli. Particulars: po; Maus, p.o., gegen Escherichia coli; hydrochloride form; read-out: In-vivo-Aktivität (Maus) (CD50 p.o.).
In data set [1] the test system is Pseudomonas aeruginosa BA. In words: In vivo activity (mouse), infection with Pseudomonas aeruginosa BA. Particulars: po; Maus, p.o., gegen Pseudomonas aeruginosa BA; hydrochloride form; read-out: In-vivo-Aktivität (Maus) (CD50 p.o.).
The next data set concerns Salmonella typhimurium. Briefly: In vivo activity (mouse), infection with Salmonella typhimurium. Particulars: Salmonella enterica, po; Maus, p.o., gegen Salmonella typhimurium; hydrochloride form; read-out: In-vivo-Aktivität (Maus) (CD50 p.o.).
Data set [2] can be described thus: Hydrolytic cleavage of the ester at physiological pH. The class given is physicochemical. Particulars: bei physiologischem pH.
Data set [3] is described as follows: Water solubility (observation on the isolated product). The class given is physicochemical. Particulars: in Wasser, result in words.

Regarding `O=C(N[C@H](CO)[C@H](O)c1ccc([N+](=O)[O-])cc1)C(F)F` [Fluoramphenicol, D-threo-1-(p-Nitrophenyl)-2-difluor-Mez/3.5.1979 acetamino-l,3-propandiol], in the data set “Metabolic stability”, the “Metabolische Beständigkeit” value is “metabolisch beständig”.
Broadly, the LD50 is the dose expected to kill half of the subjects tested. `NCC(=O)OC[C@@H](NC(=O)C(F)F)[C@H](O)c1ccc([N+](=O)[O-])cc1` [Fluoramphenicol-3-glycinester, Fluoramphenicol-3-(glycinester)-hydrochlorid]: the LD50 in “Acute toxicity (mouse)” (po) was more than 5000 mg/kg; in “Acute toxicity (mouse)” (sc), 2000 to 4000 mg/kg. Further, the ED50 in the data set on Streptococcos pyogenes was determined as 27 mg/kg; in the data set with Escherichia coli it was 23 mg/kg; in data set [1], 47 mg/kg; in the data set with Salmonella typhimurium, 12 mg/kg. In addition, in data set [2], the “Hydrolytische Spaltung” value was “sofort hydrolytisch zu wirksamem Fluoramphenicol gespalten”.
Take `C[C@H](N)C(=O)OC[C@@H](NC(=O)C(F)F)[C@H](O)c1ccc([N+](=O)[O-])cc1` [Fluoramphenicol-3-(L-alaninester)-hydrochlorid]: the Wasserlöslichkeit result in data set [3] is listed as “sehr gut wasserlösliches”.
For the molecule `O=C(O)CCC(=O)OC[C@@H](NC(=O)C(F)F)[C@H](O)c1ccc([N+](=O)[O-])cc1` [Fluoramphenicol-3-monosuccinat-natriumsalz], in data set [3], the Wasserlöslichkeit result is on record as “sehr gut wasserlösliches”.
Regarding `CCCCCCCCCCCCCCCC(=O)OC[C@@H](NC(=O)C(F)F)[C@H](O)c1ccc([N+](=O)[O-])cc1` [Fluoramphenicol-3-palmitat], the Wasserlöslichkeit result in data set [3] was “in Wasser praktisch unlösliche”.
